System: TNFα
Experiment: IRAK4 Monocyte TNFα Cell Based Assay
Design: species or system human
Conditions: Homo sapiens, Monocyte, human monocytes, LPS stimulated; compounds 1-32; read-out: EC50 TNF
Outline: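 Human monocytes (5,000/well) pretreated with compound 1 h at 37 °C (0.1% DMSO final), then stimulated with 50 pg/ml LPS for 4 h. Secreted TNFα measured by TR-FRET two-antibody detection after overnight incubation at room temperature; % control relative to unstimulated and LPS-stimulated wells.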

| EC50 [nM] | Structure (SMILES) |
| --- | --- |
| 4180 | CC(C)Nc1cc(-c2ccc3cc(C#N)cnn23)ncc1-c1nnc(N2CCCC2)s1 [Example 29, 7-(4-(isopropylamino)-5-(5-(pyrrolidin-1-yl)-1,3,4-thiadiazol-2-yl)pyridin-2-yl)pyrrolo[1,2-b]pyridazine-3-carbonitrile] |

Same assay, conditions: Homo sapiens, Monocyte, human monocytes; second part of Table 2, compounds 33-343; unit inferred; read-out: EC50 MONO TNF HTRF

| EC50 [nM] | Structure (SMILES) |
| --- | --- |
| 6.9 | CC(=O)NC1CCN(c2nnc(-c3cnc(-c4ccc5cc(C#N)cnn45)cc3NC(C)C)s2)C[C@@H]1O (stereo in doubt) [Example 64, N-((3S,4R)-1-(5-(6-(3-cyanopyrrolo[1,2-b]pyridazin-7-yl)-4-(isopropylamino)pyridin-3-yl)-1,3,4-thiadiazol-2-yl)-3-hydroxypiperidin-4-yl)acetamide] |
| 1.4 | C[C@H](C#N)Nc1cc(-c2ccc3cc(C#N)cnn23)ncc1-c1nnc(N2C[C@H]3CC[C@@H](C2)[C@@H]3NC(=O)C2CC2)s1 [Example 148, N-((1R,5S,8S)-3-(5-(4-(((R)-1-cyanoethyl)amino)-6-(3-cyanopyrrolo[1,2-b]pyridazin-7-yl)pyridin-3-yl)-1,3,4-thiadiazol-2-yl)-3-azabicyclo[3.2.1]octan-8-yl)cyclopropanecarboxamide] |

Same assay, conditions: human monocytes; second part of Table 2, compounds 33-343; unit inferred; read-out: EC50 MONO TNF HTRF

| Structure (SMILES) | EC50 [nM] |
| --- | --- |
| CNC(=O)N[C@H]1CC[C@H](c2nnc(-c3cnc(-c4ccc5cc(C#N)cnn45)cc3NC(C)C)s2)CC1 [Example 140, 1-((1r,4r)-4-(5-(6-(3-cyanopyrrolo[1,2-b]pyridazin-7-yl)-4-(isopropylamino)pyridin-3-yl)-1,3,4-thiadiazol-2-yl)cyclohexyl)-3-methylurea] | 6.4 |
| C[C@H](C#N)Nc1cc(-c2ccc3cc(C#N)cnn23)ncc1-c1nnc(N2CCC(C)(O)CC2)s1 [Example 180] | 6.8 |
| CC(C)Nc1cc(-c2ccc3cc(C#N)cnn23)ncc1-c1nnc(C2CCOC2)s1 (stereo not shown) [Compound 322] | 419 |
| CN1CCC(C(=O)N[C@@H]2[C@@H]3CC[C@H]2CN(c2nnc(-c4cnc(-c5ccc6cc(C#N)cnn56)cc4NC4(C)COC4)s2)C3)CC1 [Example 119, N-((1R,5S,8s)-3-(5-(6-(3-cyanopyrrolo[1,2-b]pyridazin-7-yl)-4-((3-methyloxetan-3-yl)amino)pyridin-3-yl)-1,3,4-thiadiazol-2-yl)-3-azabicyclo[3.2.1]octan-8-yl)-1-methylpiperidine-4-carboxamide] | 1.2 |
| COC(=O)NC[C@H]1C[C@H](Nc2cc(-c3ccc4cc(C#N)cnn34)ncc2-c2nnc([C@H]3CC[C@H](NC(=O)C4CC4)CC3)s2)C1 [Example 134, methyl (((1R,3r)-3-((2-(3-cyanopyrrolo[1,2-b]pyridazin-7-yl)-5-(5-((1r,4R)-4-(cyclopropanecarboxamido)cyclohexyl)-1,3,4-thiadiazol-2-yl)pyridin-4-yl)amino)cyclobutyl)methyl)carbamate] | 6.9 |
| CC(=O)N1CCN(c2nnc(-c3cnc(-c4ccc5cc(C#N)cnn45)cc3NC(C)C)s2)CC1 [Compound 232, 7-(5-(5-(4-acetylpiperazin-l-yl)-1,3,4-thiadiazol-2-yl)-4-(isopropylamino)pyridin-2-yl)pyrrolo[1,2-b]pyridazine-3-carbonitrile] | 7.4 |
| CC(=O)NC1CCC(F)(c2nnc(-c3cnc(-c4ccc5cc(C#N)cnn45)cc3NC3COC3)s2)CC1 (single isomer, unassigned) [Example 196, N-(4-(5-(6-(3-cyanopyrrolo[1,2-b]pyridazin-7-yl)-4-(oxetan-3-ylamino)pyridin-3-yl)-1,3,4-thiadiazol-2-yl)-4-fluorocyclohexy)acetamide] | 107 |
| CC(=O)N[C@@H]1[C@@H]2CC[C@H]1CN(c1nnc(-c3cnc(-c4ccc5cc(C#N)cnn45)cc3N[C@H](C)C#N)s1)C2 [Example 53, N-((1R,5S,8S)-3-(5-(4-(((R)-1-cyanoethyl)amino)-6-(3-cyanopyrrolo[1,2-b]pyridazin-7-yl)pyridin-3-yl)-1,3,4-thiadiazol-2-yl)-3-azabicyclo[3.2.1]octan-8-yl)acetamide] | 0.6 |
| CC(C)Nc1cc(-c2ccc3cc(C#N)cnn23)ncc1-c1nnc(N2CCC[C@H]2CO)s1 [Compound 329] | 54.2 |
| CC(=O)NC1CCC2(CC1)CN(c1nnc(-c3cnc(-c4ccc5cc(C#N)cnn45)cc3N[C@H](C)C#N)s1)C2 [Example 77] | 3.9 |

The next lines start with the values.

| EC50 [nM] | Structure (SMILES) |
| --- | --- |
| 2.8 | CC1(Nc2cc(-c3ccc4cc(C#N)cnn34)ncc2-c2nnc(N3C[C@H]4CC[C@@H](C3)[C@@H]4NC(=O)C(C)(C)O)s2)COC1 [Example 210, N-((1R,5S,8s)-3-(5-(6-(3-cyanopyrrolo[1,2-b]pyridazin-7-yl)-4-((3-methyloxetan-3-yl)amino)pyridin-3-yl)-1,3,4-thiadiazol-2-yl)-3-azabicyclo[3.2.1]octan-8-yl)-2-hydroxy-2-methylpropanamide] |
| 5.8 | CC(=O)N1C2CC1CN(c1nnc(-c3cnc(-c4ccc5cc(C#N)cnn45)cc3NC(C)C)s1)C2 [Compound 258, 7-(5-(5-(6-acetyl-3,6-diazabicyclo[3.1.1]heptan-3-yl)-1,3,4-thiadiazo1-2-yl)-4-(isopropylamino)pyridin-2-yl)pyrrolo[1,2-b]pyridazine-3-carbonitrile] |
| 11.1 | CC(C)Nc1cc(-c2ccc3cc(C#N)cnn23)ncc1-c1nnc(N2CC3CC(C2)N3C(=O)C2CCN(C)CC2)s1 [Example 117] |
| 11.6 | CC(=O)N[C@@H]1[C@@H]2C[C@H]1CN(c1nnc(-c3cnc(-c4ccc5cc(C#N)cnn45)cc3NC(C)C)s1)C2 [Example 173, N-((1R,5S,6s)-3-(5-(6-(3-cyanopyrrolo[1,2-b]pyridazin-7-yl)-4-(isopropylamino)pyridin-3-yl)-1,3,4-thiadiazol-2-yl)-3-azabicyclo[3.1.1]heptan-6-yl)acetamide] |
| 2.1 | CC(C)(O)C(=O)N[C@@H]1[C@@H]2CC[C@H]1CN(c1nnc(-c3cnc(-c4ccc5cc(C#N)cnn45)cc3NC3COC3)s1)C2 [Example 87, N-((1R,5S,8s)-3-(5-(6-(3-cyanopyrrolo[1,2-b]pyridazin-7-yl)-4-(oxetan-3-ylamino)pyridin-3-yl)-1,3,4-thiadiazol-2-yl)-3-azabicyclo[3.2.1]octan-8-yl)-2-hydroxy-2-methylpropanamide] |
| 47.1 | CC(=O)N[C@@H]1CCN(c2nnc(-c3cnc(-c4ccc5cc(C#N)cnn45)cc3NC(C)C)s2)C1 [Compound 330] |
| 2.1 | CC(=O)N[C@@H]1[C@@H]2CC[C@H]1CN(c1nnc(-c3cnc(-c4ccc5cc(C#N)cnn45)cc3NC3CCOCC3)s1)C2 [Example 171, N-((1R,5S,8s)-3-(5-(6-(3-cyanopyrrolo[1,2-b]pyridazin-7-yl)-4-((tetrahydro-2H-pyran-4-yl)amino)pyridin-3-yl)-1,3,4-thiadiazol-2-yl)-3-azabicyclo[3.2.1]octan-8-yl)acetamide] |
| 3.3 | CC(C)Nc1cc(-c2ccc3cc(C#N)cnn23)ncc1-c1nnc(N2C[C@H]3CC[C@@H](C2)[C@@H]3NC(=O)C(C)(C)O)s1 [Example 85, N-((1R,5S,8s)-3-(5-(6-(3-cyanopyrrolo[1,2-b]pyridazin-7-yl)-4-(isopropylamino)pyridin-3-yl)-1,3,4-thiadiazol-2-yl)-3-azabicyclo[3.2.1]octan-8-yl)-2-hydroxy-2-methylpropanamide] |
| 13.8 | CC(=O)N[C@@H]1CCN(c2nnc(-c3cnc(-c4ccc5cc(C#N)cnn45)cc3NC(C)C)s2)C[C@@H]1O [Example 63] |
